Our source for the IC50 values is patent publication US11958830B2, “Protease inhibitors, preparation, and uses thereof” (WESTLAKE PHARMACEUTICALS (HANGZHOU) CO., LTD., priority 2021, dated 2024).

The structures appear in SMILES notation. pIC50: −log10 of the molar value.

The target in assay [1] is T1, SARS-CoV-2 3CLpro (Severe acute respiratory syndrome coronavirus 2, UniProt P0DTD1).
T1 construct: made in house; host or cells: E. coli
Put plainly: FRET-based continuous kinetic enzymatic assay of 3CLpro. As to conditions: 100 nM 3CLpro, 100 μM fluorogenic substrate, 1 hour pre-incubation, 30° C.; read-out: IC50 against SARS-CoV-2 3CLpro. Type of assay: biochemical.

For assay [2], the system named is SARS-CoV-2. Put plainly: microbe, parasite or virus in culture. It is filed as cell-based. The conditions noted are these: Severe acute respiratory syndrome coronavirus 2, A549, read-out: IC50, anti-SARS-CoV-2 activity in A549 cells.

On to `CNC(=O)[C@@H](Cc1cccc(F)c1)NC(=O)C1CN(C(=O)c2cncc3cccc(O)c23)CCN1Cc1ccc(Cl)cc1Cl` (stereo partly shown) [Compound 1], for which the pIC50 (in general, the IC50 on a negative log10 scale, so that one unit is a factor of ten) in assay [1] is 6.78; in assay [2], 6.07.
`CNC(=O)c1cc(Br)cc([N+](=O)[O-])c1N1CC[C@@]2(CN(C(=O)c3cncc4cc(O)ccc34)C[C@@H]2c2ccccc2)C1` [Compound 8]: the pIC50 is 7.31 in assay [1] and 7.41 in assay [2].
